In patent US20170166561A1, “QUINUCLIDINE COMPOUNDS FOR MODULATING ALPHA7-NICOTINIC ACETYLCHOLINE RECEPTOR ACTIVITY” (Alpharmagen, LLC, priority 2014, published 2017) one finds half-life and T1/2 data, which are given here for 29 molecules.

Molecules are shown by their SMILES. Structures can show the parent of a compound that is named as a salt.

One series is described as follows: Human plasma stability (Protocols 1 and 2). The series is classed as in vitro ADME. The settings on record: human, plasma, pH 7.4. As for the experimental part:
Example B6: Human Plasma Stability
Studies were carried out in human plasma. All plasma was obtained from Bioreclamation and collected on sodium heparin. Plasma was adjusted to pH 7.4. A DMSO stock was first prepared for the test compound. An aliquot of the DMSO solution was dosed into 1 mL of plasma, which had been pre-warmed to 37° C., at a final test compound concentration of 1 μM. The vials were kept in a benchtop Thermomixer® for the duration of the experiment. Aliquots (100 μL) were taken at each time point (0, 15, 30, 60, and 120 minutes) and added to 96-well plates which had been pre-filled with 300 μL of acetonitrile. Samples were stored at 4° C. until the end of the experiment. After the final time point was sampled, the plate was mixed and then centrifuged at 3,000 rpm for 10 minutes. Aliquots of the supernatant were removed, diluted 1:1 into distilled water, and analyzed by LC-MS/MS. The peak area response ratio to internal standard (PARR) of the compound at 15, 30, 60 and 120 minutes was compared to the PARR at time 0 to determine the percent of test compound remaining at each time point. Half-lives were calculated using GraphPad software, fitting to a single-phase exponential decay equation.
Studies were carried out in plasma. Plasma was prepared under approval of IRB and IACUC on sodium heparin. The pH of plasma was monitored and used within the range of pH 7.4 to pH 8.0. DMSO stocks were prepared for the test compounds. Aliquots of the DMSO solutions were diluted to 0.05 mM by 0.05 mM Sodium phosphate buffer with 0.5% BSA. Then 10 μL of 0.05 mM solutions were dosed into 90 μL of plasma in duplicates (n=2), which had been pre-warmed to 37° C., at a final test compound concentration of 5 μM. The plates were kept in a 37° C. water bath for the duration of the experiment. At each time point (0, 5, 15, 30, 45, 60, and 120 minutes), 400 μL of acetonitrile was added into corresponding wells. After the final time point was sampled, the plates were shaken at the vibrator (IKA, MTS 2/4) for 10 min (600 rpm/min) and then centrifuged at 5594 g for 15 min (Thermo Multifuge×3R). Aliquots of the supernatant were removed, diluted 1:1 into distilled water, and analyzed by LC-MS/MS. The peak area response ratio to internal standard (PARR) of the compounds at 5, 15, 30, 45, 60, and 120 minutes was compared to the PARR at time 0 to determine the percent of test compound remaining at each time point. Half-lives were calculated using Excel software, fitting to a single-phase exponential decay equation.
`COc1cc2[nH]cc(C(=O)OCC34CCN(CC3)CC4)c2cc1C` [Compound 56, quinuclidin-4-ylmethyl 6-methoxy-5-methyl-1H-indole-3-carboxylate] came in with a half-life at 5 μM of 5.72 h.

`Cc1cc(C#N)cc2[nH]cc(C(=O)OCC34CCN(CC3)CC4)c12` [Compound 60, quinuclidin-4-ylmethyl 6-cyano-4-methyl-1H-indole-3-carboxylate]: the half-life at 5 μM came to 22.9 h.

The molecule `O=C(OCC12CCN(CC1)CC2)c1c[nH]c2cccc(C3CC3)c12` [Compound 61, Quinuclidin-4-ylmethyl 4-cyclopropyl-1H-indole-3-carboxylate] came in with a half-life at 5 μM of 14 h.

`O=C(OCC12CCN(CC1)CC2)c1c[nH]c2ccc(F)c(Cl)c12` [Compound 62, quinuclidin-4-ylmethyl 4-chloro-5-fluoro-1H-indole-3-carboxylate hydrochloride] had a half-life at 5 μM of 5.91 h.

The molecule `Cc1ccc2[nH]cc(C(=O)OCC34CCN(CC3)CC4)c2c1Cl` [Compound 63, quinuclidin-4-ylmethyl 4-chloro-5-methyl-1H-indole-3-carboxylate] showed a half-life at 5 μM of 7.05 h.

As for `O=C(OCC12CCN(CC1)CC2)c1c[nH]c2ccc(F)c(Br)c12` [Compound 67, quinuclidin-4-ylmethyl 4-bromo-5-fluoro-1H-indole-3-carboxylate], the half-life at 5 μM amounted to 96.9 h.

Regarding `Cc1ccc2[nH]cc(C(=O)OCC34CCN(CC3)CC4)c2c1Br` [Compound 68, quinuclidin-4-ylmethyl 4-bromo-5-methyl-1H-indole-3-carboxylate], the T1/2 result was “∞”.

With `COc1c(C)ccc2[nH]cc(C(=O)OCC34CCN(CC3)CC4)c12` [Compound 75, quinuclidin-4-ylmethyl 4-methoxy-5-methyl-1H-indole-3-carboxylate], the T1/2 result is listed as “∞”.

`COc1cc2c(C(=O)OCC34CCN(CC3)CC4)c[nH]c2cc1C#N` [Compound 76, quinuclidin-4-ylmethyl 6-cyano-5-methoxy-1H-indole-3-carboxylate]: the half-life at 5 μM stood at 4.88 h.

For `COc1cc(C#N)cc2[nH]cc(C(=O)OCC34CCN(CC3)CC4)c12` [Compound 77, quinuclidin-4-ylmethyl 6-cyano-4-methoxy-1H-indole-3-carboxylate], the half-life at 5 μM turned out to be 3.87 h.

As for `O=C(OCC12CCN(CC1)CC2)c1c[nH]c2ccc3c(c12)OCCO3` [Compound 81, quinuclidin-4-ylmethyl 2,3-dihydro-7H-[1,4]dioxino[2,3-e]indole-9-carboxylate], the half-life at 5 μM amounted to 4.5 h.

`COc1cc(C)cc2[nH]cc(C(=O)OCC34CCN(CC3)CC4)c12` [Compound 85, quinuclidin-4-ylmethyl 4 methoxy-6-methyl-1H-indole-3-carboxylate] gave a half-life at 5 μM of 1.16 h.

In turn, `COc1cc2c(C(=O)OCC34CCN(CC3)CC4)c[nH]c2cc1O` [Compound 86, quinuclidin-4-ylmethyl 6-hydroxy-5-methoxy-1H-indole-3-carboxylate] yielded a half-life at 5 μM of 0.954 h.

Take `COc1c(OCC(F)(F)F)ccc2[nH]cc(C(=O)OCC34CCN(CC3)CC4)c12` [Compound 88, quinuclidin-4-ylmethyl 4-methoxy-5-(2,2,2-trifluoroethoxy)-1H-indole-3-carboxylate]: the T1/2 entry was “∞”.

`Cc1cc(OC(=O)C(C)(C)C)cc2[nH]cc(C(=O)OCC34CCN(CC3)CC4)c12` [Compound 89, quinuclidin-4-ylmethyl 4-methyl-6-(pivaloyloxy)-1H-indole-3-carboxylate] yielded a half-life at 5 μM of 5.16 h.

`COCCOc1ccc2[nH]cc(C(=O)OCC34CCN(CC3)CC4)c2c1C` [Compound 91, quinuclidin-4-ylmethyl 5-(2-methoxyethoxy)-4-methyl-1H-indole-3-carboxylate] returned a half-life at 5 μM of 8.32 h.

For the molecule `COCCCOc1ccc2[nH]cc(C(=O)OCC34CCN(CC3)CC4)c2c1C` [Compound 92, quinuclidin-4-ylmethyl 5-(3-methoxypropoxy)-4-methyl-1H-indole-3-carboxylate], the half-life at 5 μM is 3.13 h.

Consider `CC(=O)Nc1cc(C)c2c(C(=O)OCC34CCN(CC3)CC4)c[nH]c2c1` [Compound 93, quinuclidin-4-ylmethyl 6-acetamido-4-methyl-1H-indole-3-carboxylate], for which the half-life at 5 μM worked out at 10.7 h.

`Cc1c(OCC(F)(F)F)ccc2[nH]cc(C(=O)OCC34CCN(CC3)CC4)c12` [Compound 94, quinuclidin-4-ylmethyl 4-methyl-5-(2,2,2-trifluoroethoxy)-1H-indole-3-carboxylate]: the half-life at 5 μM was found to be 5.74 h.

Take `Cc1c(OCCO)ccc2[nH]cc(C(=O)OCC34CCN(CC3)CC4)c12` [Compound 95, quinuclidin-4-ylmethyl 5-(2-hydroxyethoxy)-4-methyl-1H-indole-3-carboxylate, 2,2,2-trifluoroacetate salt]: the half-life at 5 μM worked out at 6.61 h.

`CNCCCOc1ccc2[nH]cc(C(=O)OCC34CCN(CC3)CC4)c2c1C` [Compound 96, quinuclidin-4-ylmethyl 4-methyl-5-(3-(methylamino)propoxy)-1H-indole-3-carboxylate dihydrochloride] yielded a half-life at 5 μM of 0.114 h.

The series is the same for the next values; noted with them: human; Protocol 2; plasma pH 7.4 to 8.0, 5 μM, 37° C.; read-out: T1/2.
In the case of `Cl.O=C(OCC12CCN(CC1)CC2)c1c[nH]c2cc(F)cc(Cl)c12` [Compound 64, quinuclidin-4-ylmethyl 4-chloro-6-fluoro-1H-indole-3-carboxylate hydrochloride], the half-life at 5 μM came to 12.1 h.

For the molecule `Cc1cc(Cl)c2c(C(=O)OCC34CCN(CC3)CC4)c[nH]c2c1.Cl` [Compound 65, quinuclidin-4-ylmethyl 4-chloro-6-methyl-1H-indole-3-carboxylate hydrochloride], the half-life at 5 μM was 5.56 h.

With `Cl.O=C(OCC12CCN(CC1)CC2)c1c[nH]c2cc(Cl)cc(Cl)c12` [Compound 71, quinuclidin-4-ylmethyl 4,6-dichloro-1H-indole-3-carboxylate hydrochloride], the half-life at 5 μM was 4.71 h.

With `Cc1cc2[nH]cc(C(=O)OCC34CCN(CC3)CC4)c2cc1F` [Compound 72, Quinuclidin-4-ylmethyl 5-fluoro-6-methyl-1H-indole-3-carboxylate hydrochloride], the half-life at 5 μM turned out to be 3.8 h.

With `Cc1cc2[nH]cc(C(=O)OCC34CCN(CC3)CC4)c2cc1C.Cl` [Compound 73, Quinuclidin-4-ylmethyl 5,6-dimethyl-1H-indole-3-carboxylate hydrochloride], the half-life at 5 μM is 1.57 h.

As to `COc1cc(Cl)cc2[nH]cc(C(=O)OCC34CCN(CC3)CC4)c12.Cl` [Compound 74, quinuclidin-4-ylmethyl 6-chloro-4-methoxy-1H-indole-3-carboxylate hydrochloride], the half-life at 5 μM is 2.94 h.

With `Cc1cc2c(C(=O)OCC34CCN(CC3)CC4)c[nH]c2cc1C#N` [Compound 84, quinuclidin-4-ylmethyl 6-cyano-5-methyl-1H-indole-3-carboxylate], the half-life at 5 μM turned out to be 3.49 h.

Regarding `Cl.O=C(OCC12CCN(CC1)CC2)c1c[nH]c2cc(C(F)(F)F)ccc12` [Compound 90, quinuclidin-4-ylmethyl 6-(trifluoromethyl)-1H-indole-3-carboxylate], the half-life at 5 μM came out at 3.05 h.
